# Source: ChEMBL document CHEMBL1155738, “Suppressors of cancer cell proliferation from fig (Ficus carica) resin: isolation and structure elucidation” (J Nat Prod, 2001)
# Calls of active or inactive are those of the source. No cut-off for these calls is given here.
# Tested on: Raji
# Assay: Cytotoxicity against human Raji cells at 25 to 50 ug/mL after 3 days by MTT assay
# Format: functional, cell-based
row,Compound,Activity
1,CCCCCCCCCCCCCCCCCC(=O)OC[C@H]1O[C@@H](O[C@H]2CC[C@@]3(C)C(=CC[C@H]4[C@@H]5CC[C@H]([C@H](C)CC[C@H](CC)C(C)C)[C@@]5(C)CC[C@@H]43)C2)[C@H](O)[C@@H](O)[C@@H]1O,Active
2,CCCCC/C=C/C/C=C/CCCCCCCC(=O)OC[C@H]1O[C@@H](O[C@H]2CC[C@@]3(C)C(=CC[C@H]4[C@@H]5CC[C@H]([C@H](C)CC[C@H](CC)C(C)C)[C@@]5(C)CC[C@@H]43)C2)[C@H](O)[C@@H](O)[C@@H]1O,Active
3,CCCCCCCCCCCCCCCC(=O)OC[C@H]1O[C@@H](O[C@H]2CC[C@@]3(C)C(=CC[C@H]4[C@@H]5CC[C@H]([C@H](C)CC[C@H](CC)C(C)C)[C@@]5(C)CC[C@@H]43)C2)[C@H](O)[C@@H](O)[C@@H]1O,Active
